In patent US12036312B2, “Non-aqueous topical compositions comprising a halogenated salicylanilide” (priority 2016, dated 2024):
In brackets after ≈: the same amount, converted by molar mass. Read-outs that look alike come from different tables or passages of the source.

How the values were obtained:
S. aureus = test: MIC assay according to CLSI criteria, Example 2, S. aureus strains; assay type: cell-based, Staphylococcus aureus; conditions: for MIC: Staphylococcus aureus, read-out: MIC
Method in brief: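 Broth microdilution per CLSI in cation-adjusted Mueller Hinton broth, ~5×10^5 exponential-phase cells per well, aerobic at 37° C for 18 hours; OD600 read at end.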

P. acnes = assay type: cell-based, Propionibacterium acnes; conditions: for Frequency of mutation/ml: MIC × 4
[1] = tested on: methicillin-resistant Staphylococcus aureus (MRSA 01, MRSA 15, MRSA 16); test: Resistance mutation frequency evaluation, Example 3; assay type: cell-based; conditions: at MIC×1; all tested strains (MRSA 01, MRSA 15, MRSA 16); below the detection limit

`O=C(Nc1ccc([N+](=O)[O-])cc1Cl)c1cc(Cl)ccc1O` [Niclosamide, niclosamide] was tested, and the “MIC distribution: percentage of Staphylococcus aureus strains” value (S. aureus; MIC 0.5 μg/ml, 205 strains) was 27% (55/205), the MIC50 (S. aureus; Staphylococcus aureus strains) was 0.25 µg/mL (≈ 0.764 µM) and the MIC90 (S. aureus; Staphylococcus aureus strains) was 0.5 µg/mL (≈ 1.53 µM). The MIC (S. aureus; MRSA, strain MRSA 01) was 0.25 µg/mL (≈ 0.764 µM), the MIC (S. aureus; MRSA, strain MRSA 02) was 0.25 µg/mL (≈ 0.764 µM) and the MIC (S. aureus; MRSA, strain MRSA 03) was 0.25 µg/mL (≈ 0.764 µM). It also gave an MIC (S. aureus; MRSA, strain MRSA 04) of 0.25 µg/mL (≈ 0.764 µM), an MIC (S. aureus; MRSA, strain MRSA 05) of 0.25 µg/mL (≈ 0.764 µM) and an MIC (S. aureus; MRSA, strain MRSA 06) of 0.25 µg/mL (≈ 0.764 µM). The MIC (S. aureus; MRSA, strain MRSA 08) was 0.25 µg/mL (≈ 0.764 µM), the MIC (S. aureus; MRSA, strain MRSA 10) was 0.25 µg/mL (≈ 0.764 µM) and the MIC (S. aureus; MRSA, strain MRSA 11) was 0.25 µg/mL (≈ 0.764 µM). The MIC (S. aureus; MRSA, strain MRSA 12) was 0.5 µg/mL (≈ 1.53 µM), the MIC (S. aureus; MRSA, strain MRSA 13) was 0.25 µg/mL (≈ 0.764 µM) and the MIC (S. aureus; MRSA, strain MRSA 14) was 0.25 µg/mL (≈ 0.764 µM). The MIC (S. aureus; MRSA, strain MRSA 15) was 0.25 µg/mL (≈ 0.764 µM), the MIC (S. aureus; MRSA, strain MRSA 16) was 0.25 µg/mL (≈ 0.764 µM) and the MIC (S. aureus; MRSA, strain MRSA 17) was 0.25 µg/mL (≈ 0.764 µM). The MIC (S. aureus; MRSA, strain MRSA 18) was 0.25 µg/mL (≈ 0.764 µM), the MIC (S. aureus; MRSA, strain MRSA 19) was 0.25 µg/mL (≈ 0.764 µM) and the MIC (S. aureus; MRSA, strain MRSA 20) was 0.25 µg/mL (≈ 0.764 µM). For the same compound, the MIC (S. aureus; MRSA, strain MRSA 21) was 0.25 µg/mL (≈ 0.764 µM), the MIC (S. aureus; MRSA, strain MRSA 22) was 0.25 µg/mL (≈ 0.764 µM) and the MIC (S. aureus; MRSA, strain MRSA 23) was 0.25 µg/mL (≈ 0.764 µM). The MIC (S. aureus; MRSA, strain MRSA 24) was 0.25 µg/mL (≈ 0.764 µM), the MIC (S. aureus; MRSA, strain MRSA 25) was 0.25 µg/mL (≈ 0.764 µM) and the MIC (S. aureus; MRSA, strain MRSA 26) was 0.5 µg/mL (≈ 1.53 µM). For the same compound, the MIC (S. aureus; MRSA, strain MRSA 27) was 0.5 µg/mL (≈ 1.53 µM), the MIC (S. aureus; MRSA, strain MRSA 28) was 0.25 µg/mL (≈ 0.764 µM) and the MIC (S. aureus; MRSA, strain MRSA 29) was 0.5 µg/mL (≈ 1.53 µM). For the same compound, the MIC (S. aureus; MRSA, strain MRSA 30) was 0.25 µg/mL (≈ 0.764 µM), the MIC (S. aureus; MRSA, strain MRSA 31) was 0.25 µg/mL (≈ 0.764 µM) and the MIC (S. aureus; MRSA, strain MRSA 32) was 0.25 µg/mL (≈ 0.764 µM). It also gave an MIC (S. aureus; MRSA, strain MRSA 33) of 0.25 µg/mL (≈ 0.764 µM), an MIC (S. aureus; MRSA, strain MRSA 34) of 0.25 µg/mL (≈ 0.764 µM) and an MIC (S. aureus; MRSA, strain MRSA 35) of 0.25 µg/mL (≈ 0.764 µM). For the same compound, the MIC (S. aureus; MRSA, strain MRSA 70) was 0.125 µg/mL (≈ 0.382 µM), the MIC (S. aureus; MRSA, strain MRSA 73) was 0.5 µg/mL (≈ 1.53 µM) and the MIC (S. aureus; MRSA, strain MRSA 75) was 0.5 µg/mL (≈ 1.53 µM). For the same compound, the MIC (S. aureus; MRSA, strain MRSA 78) was 0.5 µg/mL (≈ 1.53 µM), the MIC (S. aureus; MRSA, strain MRSA 80) was 0.5 µg/mL (≈ 1.53 µM) and the MIC (S. aureus; MRSA, strain MRSA 81) was 0.5 µg/mL (≈ 1.53 µM). It also gave an MIC (S. aureus; MRSA, strain MRSA 83) of 0.5 µg/mL (≈ 1.53 µM), an MIC (S. aureus; MRSA, strain MRSA 88) of 0.25 µg/mL (≈ 0.764 µM) and an MIC (S. aureus; MRSA, strain MRSA 90) of 0.5 µg/mL (≈ 1.53 µM). It also gave an MIC (S. aureus; MRSA, strain MRSA 91) of 0.25 µg/mL (≈ 0.764 µM), an MIC (S. aureus; MRSA, strain MRSA 92) of 0.25 µg/mL (≈ 0.764 µM) and an MIC (S. aureus; MRSA, strain MRSA 93) of 0.25 µg/mL (≈ 0.764 µM). It also gave an MIC (S. aureus; MRSA, strain MRSA 94) of 0.25 µg/mL (≈ 0.764 µM), an MIC (S. aureus; MRSA, strain MRSA 95) of 0.25 µg/mL (≈ 0.764 µM) and an MIC (S. aureus; MRSA, strain MRSA 96) of 0.25 µg/mL (≈ 0.764 µM). It also gave an MIC (S. aureus; MRSA, strain MRSA 97) of 0.25 µg/mL (≈ 0.764 µM), an MIC (S. aureus; MRSA, strain MRSA 98) of 0.5 µg/mL (≈ 1.53 µM) and an MIC (S. aureus; MRSA, strain MRSA 99) of 0.25 µg/mL (≈ 0.764 µM). It also gave an MIC (S. aureus; MRSA, strain MRSA 100) of 0.25 µg/mL (≈ 0.764 µM), an MIC (S. aureus; MRSA, strain MRSA 101) of 0.5 µg/mL (≈ 1.53 µM) and an MIC (S. aureus; MRSA, strain MRSA 102) of 0.25 µg/mL (≈ 0.764 µM). It also gave an MIC (S. aureus; MRSA, strain MRSA 103) of 0.25 µg/mL (≈ 0.764 µM), an MIC (S. aureus; MRSA, strain MRSA 104) of 0.5 µg/mL (≈ 1.53 µM) and an MIC (S. aureus; MRSA, strain MRSA 105) of 0.25 µg/mL (≈ 0.764 µM). It also gave an MIC (S. aureus; MRSA, strain MRSA 106) of 0.25 µg/mL (≈ 0.764 µM), an MIC (S. aureus; MRSA, strain MRSA 107) of 0.25 µg/mL (≈ 0.764 µM) and an MIC (S. aureus; MRSA, strain MRSA 108) of 0.25 µg/mL (≈ 0.764 µM). It also gave an MIC (S. aureus; MRSA, strain MRSA 109) of 0.25 µg/mL (≈ 0.764 µM), an MIC (S. aureus; MRSA, strain MRSA 110) of 0.25 µg/mL (≈ 0.764 µM) and an MIC (S. aureus; MRSA, strain MRSA 111) of 0.5 µg/mL (≈ 1.53 µM). It also gave an MIC (S. aureus; MRSA, strain MRSA 112) of 0.25 µg/mL (≈ 0.764 µM), an MIC (S. aureus; MRSA, strain MRSA 113) of 0.25 µg/mL (≈ 0.764 µM) and an MIC (S. aureus; MSSA, strain MSSA 01) of 0.5 µg/mL (≈ 1.53 µM). For the same compound, the MIC (S. aureus; MSSA, strain MSSA 02) was 0.25 µg/mL (≈ 0.764 µM), the MIC (S. aureus; NEWMAN, strain Newman) was 0.25 µg/mL (≈ 0.764 µM) and the “frequency of mutation of resistance” value (P. acnes; P. acnes) was “less than 1×10^−9”. The “frequency of mutation, times lower than the two comparator compounds fusidic acid and retapamulin” value (P. acnes; P. acnes) was “at least 10 times”, the Frequency of mutation/ml (P. acnes; P. acnes strain 998) was less than 2.5e-09 mL⁻¹ and the Frequency of mutation/ml (P. acnes; P. acnes strain 1044) was less than 1.92e-08 mL⁻¹. For the same compound, the Frequency of mutation/ml (P. acnes; P. acnes strain CSS3023) was less than 4.55e-09 mL⁻¹, the Frequency of mutation/ml (P. acnes; P. acnes strain CSS3288) was less than 2.7e-09 mL⁻¹ and the mutational frequency [1] was < 4.10^−9.
